PubChem BioAssay AID1963975 (Molecular Pharmacology Branch, DTP, NCI, 2024)

System: 624824-186-R-J2-PDC multicell spheroids, viability
Assay: Anticancer human tumor 624824-186-R-J2-PDC patient-derived colon adenocarcinoma cell line growth inhibition [PI3K]
Conditions: for IC50: curve of first compound; for viability, T/C: stronger effect = lower value
How it was run: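 Stroma-containing spheroids: tumor line, pooled-donor HUVEC, hMSC. Treatments: targeted agents with PI3K inhibitors. Dosing: clinically relevant, half-log spacing, 10 microM ceiling without known Cmax. Read-out: cell viability.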

[1] = second compound 0.0316 µM, first compound 0.000316 µM
[2] = second compound 0.0316 µM, first compound 0.001 µM
[3] = second compound 0.0316 µM, first compound 0.00316 µM
[4] = second compound 0.0316 µM, first compound 0.01 µM
[5] = second compound 0.0316 µM, first compound 0.0316 µM
[6] = second compound 0.0316 µM, first compound 0.1 µM
[7] = second compound 0.1 µM, first compound 0.000316 µM
[8] = second compound 0.1 µM, first compound 0.001 µM
[9] = second compound 0.1 µM, first compound 0.00316 µM
[10] = second compound 0.1 µM, first compound 0.01 µM
[11] = second compound 0.1 µM, first compound 0.0316 µM
[12] = second compound 0.1 µM, first compound 0.1 µM
[13] = second compound 0.316 µM, first compound 0.000316 µM
[14] = second compound 0.316 µM, first compound 0.001 µM
[15] = second compound 0.316 µM, first compound 0.00316 µM
[16] = second compound 0.316 µM, first compound 0.01 µM
[17] = second compound 0.316 µM, first compound 0.0316 µM
[18] = second compound 0.316 µM, first compound 0.1 µM
[19] = second compound 1 µM, first compound 0.000316 µM
[20] = second compound 1 µM, first compound 0.001 µM
[21] = second compound 1 µM, first compound 0.00316 µM
[22] = second compound 1 µM, first compound 0.01 µM
[23] = second compound 1 µM, first compound 0.0316 µM
[24] = second compound 1 µM, first compound 0.1 µM
[25] = second compound 3.16 µM, first compound 0.000316 µM
[26] = second compound 3.16 µM, first compound 0.001 µM
[27] = second compound 3.16 µM, first compound 0.00316 µM
[28] = second compound 3.16 µM, first compound 0.01 µM
[29] = second compound 3.16 µM, first compound 0.0316 µM
[30] = second compound 3.16 µM, first compound 0.1 µM
[31] = second compound 10 µM, first compound 0.000316 µM
[32] = second compound 10 µM, first compound 0.001 µM
[33] = second compound 10 µM, first compound 0.00316 µM
[34] = second compound 10 µM, first compound 0.01 µM
[35] = second compound 10 µM, first compound 0.0316 µM
[36] = second compound 10 µM, first compound 0.1 µM
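Further: spheroids exposed to agents for 7 days before viability read.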
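Wherever viability, T/C is given: 100% = DMSO vehicle treated spheroids.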

CC(=O)c1c(C)c2cnc(Nc3ccc(N4CCNCC4)cn3)nc2n(C2CCCC2)c1=O + Cc1nc(NC(=O)N2CCCC2C(N)=O)sc1-c1ccnc(C(C)(C)C(F)(F)F)c1
IC50 (second compound 0.0316 µM): > 100 nM
IC50 (second compound 0.1 µM): > 100 nM
IC50 (second compound 0.316 µM): > 100 nM
IC50 (second compound 1 µM): > 100 nM
IC50 (second compound 3.16 µM): > 100 nM
IC50 (second compound 10 µM): > 100 nM
viability, T/C [1]: 81.6%
viability, T/C [2]: 72.8%
viability, T/C [3]: 83.6%
viability, T/C [4]: 79.2%
viability, T/C [5]: 74.1%
viability, T/C [6]: 82.8%
viability, T/C [7]: 98.2%
viability, T/C [8]: 105%
viability, T/C [9]: 93.6%
viability, T/C [10]: 75.9%
viability, T/C [11]: 91.4%
viability, T/C [12]: 76.2%
viability, T/C [13]: 89%
viability, T/C [14]: 80.6%
viability, T/C [15]: 85%
viability, T/C [16]: 97.4%
viability, T/C [17]: 88.3%
viability, T/C [18]: 88.7%
viability, T/C [19]: 96.3%
viability, T/C [20]: 78.9%
viability, T/C [21]: 88.5%
viability, T/C [22]: 87.2%
viability, T/C [23]: 82.5%
viability, T/C [24]: 77.2%
viability, T/C [25]: 80.9%
viability, T/C [26]: 83.6%
viability, T/C [27]: 91.1%
viability, T/C [28]: 80.7%
viability, T/C [29]: 85.1%
viability, T/C [30]: 75.1%
viability, T/C [31]: 73.8%
viability, T/C [32]: 67.5%
viability, T/C [33]: 72.1%
viability, T/C [34]: 75.9%
viability, T/C [35]: 66%
viability, T/C [36]: 56.9%

CC(C)n1nc(-c2ccc3oc(N)nc3c2)c2c(N)ncnc21 + Cc1nc(NC(=O)N2CCCC2C(N)=O)sc1-c1ccnc(C(C)(C)C(F)(F)F)c1
IC50 (second compound 0.0316 µM): > 100 nM
IC50 (second compound 0.1 µM): > 100 nM
IC50 (second compound 0.316 µM): > 100 nM
IC50 (second compound 1 µM): > 100 nM
IC50 (second compound 3.16 µM): > 100 nM
IC50 (second compound 10 µM): 37.5 nM
viability, T/C [1]: 68.1%
viability, T/C [2]: 74%
viability, T/C [3]: 59.7%
viability, T/C [4]: 67.7%
viability, T/C [5]: 58.7%
viability, T/C [6]: 67.8%
viability, T/C [7]: 79.1%
viability, T/C [8]: 64.5%
viability, T/C [9]: 65.4%
viability, T/C [10]: 62.5%
viability, T/C [11]: 74%
viability, T/C [12]: 75%
viability, T/C [13]: 86.9%
viability, T/C [14]: 69%
viability, T/C [15]: 81.6%
viability, T/C [16]: 64.7%
viability, T/C [17]: 60.9%
viability, T/C [18]: 67.7%
viability, T/C [19]: 79.4%
viability, T/C [20]: 61.1%
viability, T/C [21]: 61%
viability, T/C [22]: 70.5%
viability, T/C [23]: 67.1%
viability, T/C [24]: 63.6%
viability, T/C [25]: 72.2%
viability, T/C [26]: 61.3%
viability, T/C [27]: 66.1%
viability, T/C [28]: 65.9%
viability, T/C [29]: 69.7%
viability, T/C [30]: 53.7%
viability, T/C [31]: 68.2%
viability, T/C [32]: 74%
viability, T/C [33]: 65.8%
viability, T/C [34]: 61.5%
viability, T/C [35]: 51.8%
viability, T/C [36]: 41.1%
